Measurements reported in PMC9964390, “Design, Synthesis and Phenotypic Profiling of Simplified Gedatolisib Analogues” (Pharmaceuticals, 2023).
Read-outs that look alike come from different tables or passages of the source.

Assays:
CCRF-CEM [1] = assay: MTT cell viability assay; format: cell-based, human; conditions: for CC50 / Emax: Homo sapiens; for CC50: 95% confidence interval in brackets; for Emax: read-out: Emax (maximum effect at maximum concentration used)
Protocol: (§1) For the evaluation of cellular cytotoxicity in cancer cell lines, the compounds were tested at concentrations ranging from 0.00003 μM to 150 μM. Immortalized cancer cells were selected: PC-3 (PTEN-mutated prostate adenocarcinoma), MCF-7 (PI3KCA-mutated breast carcinoma), K562 (P53-mutated chronic myeloid leukemia), CCRF-CEM (acute lymphoblastic leukemia with mutation in PTEN) and MOLT-4 (acute lymphoblastic leukemia with mutation in PI3KR1/PTEN). Peripheral blood mononuclear cells (PBMCs) were used to determine the cytotoxic selectivity index (SI). All immortalized cells were cultured in RPMI 1640 medium with 10% (v/v) FBS, streptomycin + penicillin, at 37 °C in a humidified incubator containing 5% CO2.
(§2) Cell viability was assessed by the MTT assay. The lines selected for this study were plated according to their respective densities, which ranged from 3 × 10^4 to 4 × 10^4 cells per well. Subsequently, they were treated with test compounds at different concentrations (0.00003 μM to 150 μM), gedatolisib and GSK-1059615.
(§3) After incubation, the plates are centrifuged at 440× g for 10 min. Then, 110 μL of the supernatant was withdrawn and each well received 10μL of the MTT solution. The plate was again incubated in an oven at 37 °C and 5% CO2 for 3 to 4 h. At the end of the incubation time, 100 μL of SDS-HCL detergent was added to solubilize the formazan crystals. The plate was shaken on an automatic overnight shaker and then read at a wavelength of 595 nm on the Molecular Devices Spectramax M5 plate reader.

MOLT-4 [2] = assay: MTT cell viability assay; format: cell-based, human; conditions: for CC50 / Emax: Homo sapiens; for CC50: 95% confidence interval in brackets; for Emax: read-out: Emax (maximum effect at maximum concentration used); for loss of cytotoxic potency at 48 h versus 72 h (MTT): MOLT-4
Protocol: as §1, §2, §3

[3] = PBMC viability assay (72 h MTT); format: cell-based, human; set-up: Emax at 72 h: dose or concentration left out as unconfirmed; conditions: human; for viability at 72 h, 0.3 µM: 0.3 µM (printed 0.3M); for viability at 72 h, 3 µM: 3 µM (printed 3M)
Protocol: Donor blood was collected and EDTA (ethylenediamine tetraacetic acid) was added to the sterile laminar flow in a 1:20 ratio. In a 15 mL falcon tube, 4.5 mL of Ficoll gradient was added, and then 9 mL of blood was added over the gradient in a 1:2 ratio. The tubes were centrifuged for 40 min at a speed of 750× g with an acceleration of 2 and a brake of 0. The ring of mononuclear cells formed was collected and added to a new tube.
Tubes with PBMCs were centrifuged in an incomplete RPMI medium for 10 min at 580× g with an acceleration of 8 and a brake of 9. The supernatant was discarded, and the cells were resuspended in 1 mL of RPMI medium supplemented with 20% […]. PBMCs were added to 96-well plates at a concentration of 1 × 10^5 cells per well. […]
After incubation, each well received 20 µL of MTT (5 mg/mL), followed by incubation for 4 h in the CO2 oven and centrifugation for 12 min at 1200× g. The supernatant from each well was taken, and 100 µL of isopropyl alcohol was added to solubilize the formazan crystals. The absorbance of the plates was measured at 570 nm in the Flex Station equipment.

CCRF-CEM cell line = assay: Muse Annexin V and Dead Cell Kit (phosphatidylserine externalization, membrane integrity); format: cell-based, human; conditions: for reduction of cell viability / total apoptosis: CCRF-CEM, at its CC50 value
Protocol: (§4) For quantitative analysis of live, early and late apoptosis, and cell death on both the CCRF-CEM and MOLT-4 cell lines, treated with gedatolisib and compound 5f (LASSBio-2252), the Muse® Annexin V and Dead Cell Kit was used. Compounds were studied using three concentrations.
(§5) The Annexin V and Dead Cell Kit (catalog n^o. MCH100105, Luminex) contains Annexin V, a phospholipid marker phosphatidylserine, and the molecule 7-AAD, a DNA marker for cells with a ruptured membrane. […] After incubation for 20 min at room temperature, the samples were read on the cytometer. The data with the histograms generated contain information on the percentage of viable cells, in early apoptosis, late apoptosis and dead cells. Samples from three independent experiments were performed in duplicate, and then statistical analysis was performed using the Prism6 statistical program.

MOLT-4 cell line = assay: as above; format: cell-based, human
Protocol: as §4, §5

CCRF-CEM [4] = assay: Muse Count & Viability Kit (flow cytometry); conditions: for CC50 / Emax: Homo sapiens
Protocol: (§6) Cell viability, cell death pattern, cell cycle and detection of PI3K activation were evaluated, and each analysis was performed using specific protocols of the Guava Muse Cell Analyzer.
(§7) In total, 20 µL of the cell solution was added to 380 µL of the reagent in 1 mL Eppendorf tubes and incubated for 5 min at room temperature in the dark. Samples from three independent experiments carried out in duplicate were read on the cytometer, followed by statistical analysis of the histograms on Prism6 to determine the CC50.

MOLT-4 [5] = assay: Muse Count & Viability Kit (flow cytometry); conditions: for CC50 / Emax: Homo sapiens; for loss of potency in Muse Count & Viability Kit 72 h versus 72 h MTT: MOLT-4
Protocol: as §6, §7

MCF7 = assay: Muse Count & Viability Kit (flow cytometry); set-up: Emax: dose or concentration left out as unconfirmed
[6] = peripheral blood mononuclear cells (PBMCs), PBMC, read-out: % cell viability
[7] = Homo sapiens, CCRF-CEM 48 h, read-out: % of cells, Viable
[8] = PBMC, read-out: % cell viability

SMILES	loss of cytotoxic potency at 48 h versus 72 h (MTT) (CCRF-CEM [1])	CC50 (CCRF-CEM [1]; 48 h MTT)	Emax (CCRF-CEM [1]; 48 h MTT)	CC50 (CCRF-CEM [1]; 72 h MTT)	Emax (CCRF-CEM [1]; 72 h MTT)	CC50 (MOLT-4 [2]; MOLT-4, 48 h MTT)	Emax (MOLT-4 [2]; MOLT-4, 48 h MTT)	CC50 (MOLT-4 [2]; MOLT-4, 72 h MTT)	Emax (MOLT-4 [2]; MOLT-4, 72 h MTT)	loss of cytotoxic potency at 48 h versus 72 h (MTT) (MOLT-4 [2])	reduction of cell viability (CCRF-CEM cell line)	total apoptosis (CCRF-CEM cell line)	viability at 50 µM (CCRF-CEM cell line; [7])	loss of potency in Muse Count & Viability Kit 72 h versus 72 h MTT (CCRF-CEM [4])	CC50 (CCRF-CEM [4]; 48 h)	Emax (CCRF-CEM [4]; 48 h)	CC50 (CCRF-CEM [4]; 72 h)	Emax (CCRF-CEM [4]; 72 h)	CC50 (MOLT-4 [5]; MOLT-4, 48 h)	Emax (MOLT-4 [5]; MOLT-4, 48 h)	further results
CN(C)C1CCN(C(=O)c2ccc(NC(=O)Nc3ccc(-c4nc(N5CCOCC5)nc(N5CCOCC5)n4)cc3)cc2)CC1 [Gedatolisib, gedatolisib]	~10 fold	0.14 µM	94%	0.03 µM	90%	0.15 µM	92%	0.02 µM	93%	~10 fold	about 50%	about 50%	7%	100 fold	5.88 µM	94%	6.15 µM	94%	1.65 µM	82%	viability at 72 h, 0.0003 µM ([3]; peripheral blood mononuclear cells (PBMCs), PBMC, 0.0003 µM (printed 0.0003M), read-out: % cell viability): 89%; viability at 72 h, 0.003 µM ([3]; peripheral blood mononuclear cells (PBMCs), PBMC, 0.003 µM (printed 0.003M), read-out: % cell viability): 85%; viability at 72 h, 0.3 µM [3, 6]: 80%; viability at 72 h, 3 µM [3, 6]: 85%; viability at 72 h, 50 µM ([3]; peripheral blood mononuclear cells (PBMCs), PBMC, 50 µM (printed 50M), read-out: % cell viability): 67%; viability at 0.6 µM (CCRF-CEM cell line; Homo sapiens, CCRF-CEM 48 h, 0.6 μM, read-out: % of cells, Viable): 68%; viability at 6 µM (CCRF-CEM cell line; Homo sapiens, CCRF-CEM 48 h, 6 μM, read-out: % of cells, Viable): 55%; viability at 0.15 µM (MOLT-4 cell line; Homo sapiens, MOLT-4 48 h, 0.15 μM, read-out: % de células, Viable): 10%; viability at 1.5 µM (MOLT-4 cell line; Homo sapiens, MOLT-4 48 h, 1.5 μM, read-out: % de células, Viable): 11%; viability at 30 µM (MOLT-4 cell line; Homo sapiens, MOLT-4 48 h, 30 μM, read-out: % de células, Viable): 4%; reduction of cell viability (MOLT-4 cell line; MOLT-4, concentration 10 times lower than its CC50): 90%; CC50 (MOLT-4 [5]; MOLT-4, 72 h): 1.15 µM; Emax (MOLT-4 [5]; MOLT-4, 72 h): 86%; loss of potency in Muse Count & Viability Kit 72 h versus 72 h MTT (MOLT-4 [5]): 100 fold; Emax (MCF7; Homo sapiens, MCF7, 72 h, read-out: maximum effect (Emax)): 54%
c1ccc(N2CCN(c3nc(N4CCCNCC4)nc(N4CCOCC4)n3)CC2)cc1 [5f, 4-(4-(1,4-Diazepan-1-yl)-6-(4-phenylpiperazin-1-yl)-1,3,5-triazin-2-yl)morpholine]	less than 2 fold	11.1 µM	69%	6.25 µM	93%	36.5 µM	80%	9.76 µM	93%	less than 4 fold	about 50%	about 50%	47%	≤ 10 fold	49 µM	95%	53.1 µM	96%	51 µM	90%	Emax at 72 h [3]: 26%; viability at 72 h, 0.03 µM ([3]; PBMC, 0.03 µM (printed 0.03M), read-out: % cell viability): 92%; viability at 72 h, 0.3 µM [3, 8]: 88%; viability at 72 h, 3 µM [3, 8]: 91%; viability at 72 h, 30 µM ([3]; PBMC, 30 µM (printed 30M), read-out: % cell viability): 75%; viability at 72 h, 100 µM ([3]; PBMC, 100 µM (printed 100M), read-out: % cell viability): 73%; viability at 5 µM (CCRF-CEM cell line; Homo sapiens, CCRF-CEM 48 h, 5 μM, read-out: % of cells, Viable): 87%; viability at 6 µM (MOLT-4 cell line; Homo sapiens, MOLT-4 48 h, 6 μM, read-out: % de células, Viable): 86%; viability at 60 µM (MOLT-4 cell line; Homo sapiens, MOLT-4 48 h, 60 μM, read-out: % de células, Viable): 20%; reduction of the number of viable cells (MOLT-4 cell line; MOLT-4, tested at 10-fold concentration): 80%; reduction of the number of viable cells (MOLT-4 cell line; MOLT-4, tested at its CC50 value): 14%; CC50 (MOLT-4 [5]; MOLT-4, 72 h): 60.8 µM; Emax (MOLT-4 [5]; MOLT-4, 72 h): 92%; loss of potency in Muse Count & Viability Kit 72 h versus 72 h MTT (MOLT-4 [5]): ≤ 10 fold; cytotoxic activity (MCF7; MCF-7, Muse Count & Viability Kit, 72 h): inactive
